The supplement of paper PMC10307832

Legend:
Experiment in all cases: relative viability (nuclei count vs DMSO), 5 days (fraction); higher = more cells survive
Carboplatin + Tozasertib = compound: C1CC(C1)(C(=O)O)C(=O)O.[NH2-].[NH2-].[Pt+2] [Carboplatin] + Cc1cc(Nc2cc(N3CCN(C)CC3)nc(Sc3ccc(NC(=O)C4CC4)cc3)n2)n[nH]1 [Tozasertib] (partner 0.1 µM)
Outline: (§1)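 One day after seeding in 1536-well plates, lung cancer cell lines were dosed by pin tool. Dosing was either single-drug or a fixed anchor-drug dose plus five library-drug doses (not always all listed) in √10 steps. After 5 days, nuclei were stained in one fix-and-stain step and counted on 4× images, and relative viability is the nuclei count of treated wells over that of vehicle wells, given as the median of duplicate plates.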

GSK126 + Luminespib = compound: CC[C@H](C)N1C=C(C2=C(C=C(C=C21)C3=CN=C(C=C3)N4CCNCC4)C(=O)NCC5=C(C=C(NC5=O)C)C)C [GSK126] + CCNC(=O)c1noc(-c2cc(C(C)C)c(O)cc2O)c1-c1ccc(CN2CCOCC2)cc1 [Luminespib] (partner 0.01 µM)
Outline: as §1

MLN4924 + AZD7762 = compound: NS(=O)(=O)OC[C@@H]1C[C@@H](n2ccc3c(N[C@H]4CCc5ccccc54)ncnc32)C[C@@H]1O [MLN4924] + NC(=O)Nc1cc(-c2cccc(F)c2)sc1C(=O)N[C@H]1CCCNC1 [AZD7762] (partner 0.2 µM)
Outline: as §1

GSK126 + Tozasertib = compound: CC[C@H](C)N1C=C(C2=C(C=C(C=C21)C3=CN=C(C=C3)N4CCNCC4)C(=O)NCC5=C(C=C(NC5=O)C)C)C [GSK126] + Cc1cc(Nc2cc(N3CCN(C)CC3)nc(Sc3ccc(NC(=O)C4CC4)cc3)n2)n[nH]1 [Tozasertib] (partner 0.1 µM)
Outline: as §1

Cell Line	relative viability (Carboplatin + Tozasertib; first compound 0.08 µM)	relative viability (Carboplatin + Tozasertib; first compound 0.253 µM)	relative viability (Carboplatin + Tozasertib; first compound 0.8 µM)	relative viability (Carboplatin + Tozasertib; first compound 2.53 µM)	relative viability (Carboplatin + Tozasertib; first compound 8 µM)	relative viability (GSK126 + Luminespib; first compound 0.08 µM)	relative viability (GSK126 + Luminespib; first compound 0.253 µM)	relative viability (GSK126 + Luminespib; first compound 0.8 µM)	relative viability (GSK126 + Luminespib; first compound 2.53 µM)	relative viability (GSK126 + Luminespib; first compound 8 µM)	relative viability (MLN4924 + AZD7762; first compound 0.04 µM)	relative viability (MLN4924 + AZD7762; first compound 0.1265 µM)	relative viability (MLN4924 + AZD7762; first compound 0.4 µM)	relative viability (MLN4924 + AZD7762; first compound 1.265 µM)	relative viability (MLN4924 + AZD7762; first compound 4 µM)	relative viability (GSK126 + Tozasertib; first compound 0.08 µM)	relative viability (GSK126 + Tozasertib; first compound 0.253 µM)	relative viability (GSK126 + Tozasertib; first compound 0.8 µM)	relative viability (GSK126 + Tozasertib; first compound 2.53 µM)	relative viability (GSK126 + Tozasertib; first compound 8 µM)
NCI-H522	0.63	0.604	0.547	0.525	0.528	1.2	1.2	1.13	1.19	1.13	0.919	0.69	0.588	0.353	0.383	0.535	0.507	0.503	0.527	0.605
LOU-NH91	0.727	0.807	0.671	0.63	0.637	0.303	0.337	0.325	0.364	0.357	0.785	0.95	0.823	0.645	0.459	0.741	0.66	0.661	0.685	0.631
NCI-H1355	0.578	0.616	0.601	0.489	0.55	0.783	0.753	0.777	0.881	0.806	0.833	0.875	0.788	0.441	0.234	0.573	0.495	0.546	0.533	0.378
NCI-H441	0.746	0.687	0.508	0.454	0.469	0.361	0.283	0.28	0.35	0.349	1.23	1.12	0.722	0.452	0.173	0.68	0.571	0.567	0.545	0.461
NCI-H1395	0.721	0.733	0.65	0.646	0.566	0.64	0.62	0.606	0.689	0.545	0.493	0.416	0.383	0.408	0.331	0.787	0.763	0.831	0.683	0.669
NCI-H2023	0.419	0.394	0.402	0.262	0.158	0.728	0.759	0.698	0.656	0.66						0.387	0.342	0.339	0.266	0.184
NCI-H1666	0.597	0.683	0.599	0.534	0.526	1.04	0.926	0.858	0.855	0.907	0.726	0.755	0.614	0.356	0.362	0.667	0.624	0.557	0.52	0.49
HCC-15	0.48	0.553	0.34	0.342	0.303	0.494	0.268	0.41	0.286	0.245	1.13	0.971	0.645	0.0981	0.125	0.374	0.329	0.43	0.204	0.158
